Literature values, collected in patent publication US20210128676A1, “METHOD OF TREATING PATIENTS WITH H[…] TYPE 1 AND LOW MEAN ARTERIAL PRESSURE” (Mallinckrodt Hospital Products IP Unlimited Company, priority 2019, published 2021).
Positions of bridges follow the written chain, without caps; N, C: chain ends. Residues, ends and D or L forms follow the SMILES beside them.

Settings: in vivo

| SMILES | half-life | duration of action |
| --- | --- | --- |
| NCCCC[C@H](NC(=O)[C@@H]1CCCN1C(=O)[C@@H]1CSSC[C@H](NC(=O)CNC(=O)CNC(=O)CN)C(=O)N[C@@H](Cc2ccc(O)cc2)C(=O)N[C@@H](Cc2ccccc2)C(=O)N[C@@H](CCC(N)=O)C(=O)N[C@@H](CC(N)=O)C(=O)N1)C(=O)NCC(N)=O [Terlipressin, N—[N—(N-glycylglycyl)glycyl]-8-L-lysinevasopressin] (H-GGGCYFQNCPKG-NH2; disulfide 4-9 (inferred)) | 6 h |  |
| NC(=O)CC[C@@H]1NC(=O)[C@H](Cc2ccccc2)NC(=O)[C@H](Cc2ccc(O)cc2)NC(=O)[C@@H](N)CSSC[C@@H](C(=O)N2CCC[C@H]2C(=O)N[C@@H](CCCN=C(N)N)C(=O)NCC(N)=O)NC(=O)[C@H](CC(N)=O)NC1=O [vasopressin] | 0.1 h | 30 to 60 min |
